Marks after values point to notes of the source that are not given here.
Assays:
[1] = test system: DLD-1 cell (human colorectal cancer cell line in which PRL-3 is over-expressed); assay: In vitro cell migration, trans-well assay; format: cell-based; conditions: for inhibitory activity against cell migration for colorectal cancer cell line: DLD-1, compared with control sample of 0.1% DMSO, FIG. 4
Experimental: In order to analyze inhibitory activity against in vitro cell migration of the benproperine derivative according to the present invention, after DLD-1 cell (ATCC-CCL-221), which is the human colorectal cancer cell lines in which PRL-3, cancer metastasis-related genes, is over-expressed, was grown around by 90% on the culture plate containing RPMI medium, the medium was removed and the cell was washed with PBS. The washed cell was processed with trypsin-EDTA, cultured CO2 incubator at 37° C. for […], and then detached. The resultant cells in which 10% FBS-containing RPMI medium was added were collected in the falcon tube and the medium was removed by centrifugation. The process in which FBS-free RPMI medium were added in the obtained cells and the medium was removed by centrifugation was repeated twice. After the obtained cells in which FBS-free RPMI medium was added were suspended, the number of cells was counted using a hemocytometer.
The cells of 8×10^4 cells/200 μl were added to trans-wells which were placed on 24-well plates. FBS-free RPMI medium of 500 μl was added using the empty space where trans-wells were placed on well plates and cultured in a CO2 incubator at 37° C. for 12 to 16 hours. After the medium has been removed by placing trans-wells upside down on hand towel following culture, crystal violet of 500 μl (20% MeOH in 5 mg/ml) was added to each well of 24-well plates and trans-wells were put in a CO2 incubator for 30 minutes. Stained trans-wells were washed with PBS and placed upside down on hand towel so that the remaining solution was impregnated. Membrane was placed on the cover slip with the side where the cells didn't move facing upwards and wiped well with a cotton swab. The cover slip on whose edges nail polish was applied a little was put on a slide glass and fixed. The prepared sample was photographed with an inverted microscope (TE 300, Nikon, Japan) equipped with digital camera and the number of cells having moved was counted.
Inhibitory activity against cell migration of benproperine and pharmaceutically acceptable salt thereof in Formulas 2 to 4 according to the present invention was observed by the above method, and inhibition rate was calculated by the Mathematical Equation 1.
Wherein the control sample was observed by adding 0.1% dimethyl sulfoxide (DMSO) only without addition of the compound in the present invention.

[2] = test system: melanoma cell line B16F10; assay: In vitro cell migration, trans-well assay; format: cell-based, mouse; conditions: 10 μM, B16F10, FIG. 5
[3] = test system: vascular endothelial cell HUVECs; assay: In vitro endothelial morphogenesis assay (tube formation on Matrigel); format: cell-based, human; conditions: 24 hours, FIG. 6
Experimental: Specifically, HUVECs (ATCC-CRL-2873) was brought into the starvation state by culturing in a serum-free medium overnight. Matrigel matrix (BD biosciences) of 0.2 ml was added in each well of 24-well plates and placed in the 37° C. incubator for 1 hour to coat the surface of well. 0.2 ml 2×10^4 cells prepared in the above were added to each well coated with Matrigel matrix and cultured in a CO2 incubator for 30 minutes. After culture, fresh medium containing benproperine of 1, 5, and 10 μM concentration was added in each well followed by the addition of 1% serum and cultured in a CO2 incubator for 24 hours. After culture, the degree of inhibitory activity against HUVECs tube formation of benproperine was observed under a microscope.

[4] = test system: DLD-1 cell (human colorectal cancer cell line in which PRL-3 is over-expressed); assay: Cytotoxicity of benproperine, WST-1 assay; format: cell-based; conditions: DLD-1 cells, 48 hours, up to 10 μM, WST-1 absorbance at 450 nm, FIG. 2
Experimental: In order to examine the cytotoxicity of the benproperine derivative prepared in Reference Example 1, after DLD-1 cell (ATCC-CCL-221), which is the human colorectal cancer cell lines in which PRL-3 cancer metastasis-related genes is over-expressed, was cultured in the RPMI culture medium containing 10% fetal bovine serum (FBS) and maintained at 37° C., 5% CO2, the cell was detached using 0.05% trypsin-EDTA. 4×10^3 cells which were calculated by hemocytometer were inoculated in each well of 96-well plates medium containing 10% FBS, and cultured in 37° C. incubator containing 5% CO2. After 24 hours, the culture medium of each well was replaced with new medium containing control (0.1% DMSO) and benproperine in Formula 2, which was prepared in Reference Example 1, by concentration (5 to 10 μM) and replace it with a new medium, and was cultured in 37° C., 5% CO2 incubator for 48 hours. After WST-1 (Roche) of 10 μl was added in each well of the above plate followed by 2 hours of culture, absorbance was measured at 450 nm using ELISA reader (Bio-Rad).

[5] = Acute toxicity experiment of oral administration to rats; conditions: rat, in vivo, 1000 mg/kg
Experimental: In order to identify the toxicity of benproperine and pharmaceutically acceptable salt thereof according to the present invention, acute toxicity experiment was performed with laboratory animal as the subject as follow.
After 6-week-old specific pathogen free (SPF) SD bred rats were divided into groups of 2 specimens, and were orally administered once with benproperine which was prepared in Reference Example 1 and dissolved in injectable distilled water with a dose of 1000 mg/kg.

[6] = In vitro cell migration, trans-well assay; format: cell-based, human; conditions: 10 μM, A375P, FIG. 5
[7] = test system: pancreatic cancer cell line AsPc-1 cells; assay: In vitro cell migration, trans-well assay; format: cell-based, human; conditions: 10 μM, AsPc-1, FIG. 5
[8] = test system: B16F10 human melanoma cells; assay: In vivo metastasis of cancer, melanoma cells inoculated to tail vein, lung colony count; set-up: species or system C57BL/6 mouse; conditions: 50 mg/kg intraperitoneally once a day, 14 times in total; for Inhibition rate (%) of metastasis: compared with control group, p < 0.001
Experimental: In order to analyze inhibitory activity against in vivo cell migration of benproperine according to the present invention, inhibitory activity against metastasis of cancer of benproperine was analyzed using tumor model where melanoma cells are transplanted.
Specifically, B16F10 […] melanoma cell line (ATCC-CRL-6475) was inoculated to DMEM (GIBCO, USA) medium containing 10% FBS (GIBCO, USA), and cultured at 5% CO2, 37° C. 7-week-old female specific pathogen free (SPF) C57BL/6 mouse was adapted to the laboratory environment by supplying enough antibiotic-free pellet feed (Samyang feed Inc., South Korea) and sterilized tap water, and then used in the experiment.
Cultured B16F10 […] melanoma cells were suspended in PBS 200 μl at the concentration of 2×10^6 cells/ml, and inoculated […] to tail vein of the above mouse using a 26 gauge needle. After 3 hours of inoculation, the mice were divided into two groups in which the control group treated with sterile distilled water and the experimental group was intraperitoneally administered with benproperine of 50 mg/kg once a day, 14 times in total. The administration continued for 13 consecutive days, and then stopped. On day after the administration, autopsy was performed to the mouse of each group to extract the lung, and the number of colonies of metastasized cancer cells (melanoma cells) was counted.

[9] = Weight change in the AsPC-1 metastasis model (toxicity); format: in vivo, BALB/C nude mouse; conditions: 50 and 100 mg/kg orally, five times a week, total of 20 times, FIG. 7
Experimental: (§1) To be specific, the human-derived pancreatic cancer cell line AsPC-1 (adenocarcinoma; Pancrease cancer) had been stored frozen in liquid nitrogen and it was thawed and cultured in CO2 incubator (Form a, USA) with 5% CO2 at 37° C. Specific-pathogen-free (SPF) BALB/C nude mouse (orient, Korea) was used in this experiment.
The cultured cells were collected and diluted to a cell concentration of 5×10^6 cells/ml by adding serum free media. Then, the animal model was prepared by intravenous administration of 0.2 ml of the cell culture to each mouse. Subsequently, 5 mg/ml of benproperine phosphate (MD-164) (KRIBB, Korea) was prepared by dissolving it in 0.5% Tween80 and orally administered to the mouse at a dose of 10 ml/kg five times a week, for a total of 20 times.
First, in order to analyze the toxicity of benproperine phosphate, the weight of all test groups was measured prior to administration of the compound, three times a week during the test period.

[10] = test system: human-derived pancreatic cancer cell line (AsPC-1); assay: In vivo metastasis of cancer, AsPC-1 transplanted in caudal vein, bioluminescence imaging; set-up: species or system BALB/C nude mouse; conditions: 50 mg/kg orally, 28th day after drug administration, lung, FIG. 8
Text: In order to examine the in vivo inhibitory activity of the salt of benproperine of the present invention against metastasis of cancer, the inhibitory activity of benproperine phosphate (MD-164) against metastasis of cancer and toxicity of the same were examined by using the animal model which was transplanted with human-derived pancreatic cancer cell line (AsPC-1) in caudal vein.
as §1, with “experiment. […]” for “experiment.”
Secondly, in order to establish an animal model of pulmonary metastases, luciferase stably expressing AsPC-1 cell line was transplanted into a tail vein of mouse at a dose of 1×10^6 cells/mouse. […] The bioluminescence value was measured for equal area of each mouse subject, and the metastasis inhibition rate (%) in the group administered with benproperine phosphate was determined compared to a control group by the Mathematical Equation 2.
On the 28th day after drug administration, the lung of animal model was collected, the number of colony was measured, and imaging signal (photone/s/sr) was also measured.

For CC(COc1ccccc1Cc1ccccc1O)N1CCCCC1 (centres unmarked) [2-hydroxybenproperine], the “inhibitory activity against cell migration for colorectal cancer cell line” value (shortened to “inhibitory activity”) [1] was “inhibit effectively”.

In the case of CC(COc1ccccc1Cc1ccccc1)N1CCCC(O)C1 (centres unmarked) [3-hydroxybenproperine], the “inhibitory activity” value [1] is reported as “inhibit effectively”.

For CC(COc1ccccc1Cc1ccccc1)N1CCCCC1 (centres unmarked) [benproperine], the “cell migration compared with DMSO-treated sample” value [2] was “prominently inhibited”, the “inhibition of tube formation of HUVECs” value ([3]; 10 μM, compared to DMSO-treated control group) was “significantly” and the “inhibition of tube formation of HUVECs” value ([3]; 1, 5 and 10 μM) was “concentration-dependent manner”. The “cell migration compared with DMSO-treated sample” value ([1]; 10 μM, DLD-1, FIG. 5) was “prominently inhibited”, the “inhibitory activity” value [1] was “inhibit effectively” and the inhibition at 5 µM ([1]; Homo sapiens, 5 μM, DLD-1, control 0.1% DMSO, FIG. 3, read-out: inhibition of migration of colorectal cancer cell compared to control) was > 80%. For the same compound, the inhibition at 10 µM ([1]; Homo sapiens, 10 μM, DLD-1, control 0.1% DMSO, FIG. 3, read-out: inhibition of migration of colorectal cancer cell compared to control) was > 90%, the cytotoxicity [4] was “no cytotoxicity” and the LD50 ([5]; Sprague-Dawley (SD), rats, single oral administration, read-out: minimum lethal dose (LD50) for oral administration) was > 1000 mg/kg. The “clinical symptoms, death, or weight changes” value ([5]; po) was “not observed”, the “toxic change (hematological examination, biochemical examination of blood, autopsy)” value ([5]; po) was “no toxic change” and the “cell migration compared with DMSO-treated sample” value [6] was “prominently inhibited”. The “cell migration compared with DMSO-treated sample” value [7] was “prominently inhibited”, the “Inhibition rate (%) of metastasis” value [8] was 45.1% and the “Inhibition rate (%) of metastasis” value ([8]; listed as Benproperine) was 45.1* %. The “Number of lung colony (average ± SD)” value ([8]; negative control 106 ± 23.3) was 58.2 ± 25.8.

With benproperine phosphate the “weight loss in comparison to a control group” value [9] was “no significant weight loss” and the “inhibition rate against metastasis compared to a control group” value [10] was 71.5%.

— patent publication US8716288B2, “Composition comprising benproperine derivatives as active ingredients for preventing and treating angiogenesis-related diseases” (Korea Research Institute of Bioscience and Biotechnology, priority 2010, dated 2014)
